Source: ChEMBL document CHEMBL3351253, “Sterol fatty acid esters from the mushroom Hericium erinaceum and their PPAR transactivational effects” (J Nat Prod, 2014)

Legend:
Assay type in all cases: cell-based
[1] = target: T1, Peroxisome proliferator-activated receptor alpha (Homo sapiens) (UniProt Q07869); assay: Transactivation of human Gal4-PPARalpha LBD transfected in human HepG2 cells assessed as stimulation at 1 uM after 20 hrs by luciferase reporter gene assay relative to vehicle-treated control
T1 sequence (whole entry): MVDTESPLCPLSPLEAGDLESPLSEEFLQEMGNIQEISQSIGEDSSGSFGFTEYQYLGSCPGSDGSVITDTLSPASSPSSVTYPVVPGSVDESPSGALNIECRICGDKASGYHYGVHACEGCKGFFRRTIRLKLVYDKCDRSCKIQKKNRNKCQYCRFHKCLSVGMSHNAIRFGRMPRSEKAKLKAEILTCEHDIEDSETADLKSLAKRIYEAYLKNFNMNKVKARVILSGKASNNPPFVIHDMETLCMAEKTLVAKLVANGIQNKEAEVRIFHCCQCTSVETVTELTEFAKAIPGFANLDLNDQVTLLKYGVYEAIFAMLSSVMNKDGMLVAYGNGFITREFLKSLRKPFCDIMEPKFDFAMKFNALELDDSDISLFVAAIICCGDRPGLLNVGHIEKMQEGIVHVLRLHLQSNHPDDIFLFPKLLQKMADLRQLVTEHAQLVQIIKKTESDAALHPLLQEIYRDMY

[2] = target: T2, Peroxisome proliferator-activated receptor (Homo sapiens, UniProt P37231+Q07869+Q03181); assay: (§1) Transactivation of PPAR transfected in human HepG2 cells after 20 hrs by PPAR-luciferase assay
T2 sequence (P37231 whole entry): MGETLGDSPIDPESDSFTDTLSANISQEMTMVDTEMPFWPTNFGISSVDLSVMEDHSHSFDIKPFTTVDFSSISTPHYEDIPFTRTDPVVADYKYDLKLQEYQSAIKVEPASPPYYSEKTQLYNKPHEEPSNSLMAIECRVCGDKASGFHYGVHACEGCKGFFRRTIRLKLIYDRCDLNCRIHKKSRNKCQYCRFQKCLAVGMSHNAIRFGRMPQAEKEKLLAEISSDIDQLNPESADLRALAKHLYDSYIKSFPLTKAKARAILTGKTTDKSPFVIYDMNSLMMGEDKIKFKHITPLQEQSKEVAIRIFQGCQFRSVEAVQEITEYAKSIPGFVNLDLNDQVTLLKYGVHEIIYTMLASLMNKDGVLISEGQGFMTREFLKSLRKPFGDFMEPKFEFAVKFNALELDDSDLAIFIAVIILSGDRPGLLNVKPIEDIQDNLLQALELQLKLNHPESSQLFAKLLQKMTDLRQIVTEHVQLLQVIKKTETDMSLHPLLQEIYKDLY
T2 sequence (Q07869 whole entry): T1 sequence (whole entry)
T2 sequence (Q03181 whole entry): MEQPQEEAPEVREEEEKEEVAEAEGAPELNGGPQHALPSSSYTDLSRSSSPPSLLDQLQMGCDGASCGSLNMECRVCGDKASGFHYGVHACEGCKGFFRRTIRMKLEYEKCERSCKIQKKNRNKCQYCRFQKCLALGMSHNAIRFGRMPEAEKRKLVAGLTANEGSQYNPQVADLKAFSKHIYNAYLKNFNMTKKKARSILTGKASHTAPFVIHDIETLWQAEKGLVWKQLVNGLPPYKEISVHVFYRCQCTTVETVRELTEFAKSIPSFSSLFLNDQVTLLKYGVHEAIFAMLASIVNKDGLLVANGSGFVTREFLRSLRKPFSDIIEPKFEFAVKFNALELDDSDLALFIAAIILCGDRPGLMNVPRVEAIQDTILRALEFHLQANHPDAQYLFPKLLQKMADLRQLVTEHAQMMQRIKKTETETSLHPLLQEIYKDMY

[3] = system: HepG2; assay: Cytotoxicity against human HepG2 cells assessed as CCK8 after 24 hrs; conditions: hepg2, 24 h
[4] = target: T3, Peroxisome proliferator-activated receptor gamma (Homo sapiens) (UniProt P37231); assay: Transactivation of human Gal4-PPARgamma LBD transfected in human HepG2 cells assessed as stimulation at 10 uM after 20 hrs by luciferase reporter gene assay relative to vehicle-treated control
T3 sequence (whole entry): T2 sequence (P37231 whole entry)

[5] = target: T4, Peroxisome proliferator-activated receptor delta (Homo sapiens) (UniProt Q03181); assay: Transactivation of human Gal4-PPARbeta/delta LBD transfected in human HepG2 cells assessed as stimulation at 20 uM after 20 hrs by luciferase reporter gene assay relative to vehicle-treated control
T4 sequence (whole entry): T2 sequence (Q03181 whole entry)

[6] = target: T4, Peroxisome proliferator-activated receptor delta (Homo sapiens); assay: Transactivation of human Gal4-PPARbeta/delta LBD transfected in human HepG2 cells assessed as stimulation at 5 uM after 20 hrs by luciferase reporter gene assay relative to vehicle-treated control
[7] = target: T1, Peroxisome proliferator-activated receptor alpha (Homo sapiens); assay: Transactivation of human Gal4-PPARalpha LBD transfected in human HepG2 cells assessed as stimulation at 5 uM after 20 hrs by luciferase reporter gene assay relative to vehicle-treated control
[8] = target: T1, Peroxisome proliferator-activated receptor alpha (Homo sapiens); assay: Transactivation of human Gal4-PPARalpha LBD transfected in human HepG2 cells assessed as stimulation at 20 uM after 20 hrs by luciferase reporter gene assay relative to vehicle-treated control
[9] = target: T4, Peroxisome proliferator-activated receptor delta (Homo sapiens); assay: Transactivation of human Gal4-PPARbeta/delta LBD transfected in human HepG2 cells assessed as stimulation at 10 uM after 20 hrs by luciferase reporter gene assay relative to vehicle-treated control
[10] = target: T1, Peroxisome proliferator-activated receptor alpha (Homo sapiens); assay: Transactivation of human Gal4-PPARalpha LBD transfected in human HepG2 cells assessed as stimulation at 10 uM after 20 hrs by luciferase reporter gene assay relative to vehicle-treated control
[11] = target: Peroxisome proliferator-activated receptor (Homo sapiens) (UniProt P37231+Q07869+Q03181); assay: as §1
[12] = target: T3, Peroxisome proliferator-activated receptor gamma (Homo sapiens); assay: Transactivation of human Gal4-PPARgamma LBD transfected in human HepG2 cells assessed as stimulation at 5 uM after 20 hrs by luciferase reporter gene assay relative to vehicle-treated control
[13] = target: T3, Peroxisome proliferator-activated receptor gamma (Homo sapiens); assay: Transactivation of human Gal4-PPARgamma LBD transfected in human HepG2 cells assessed as stimulation at 20 uM after 20 hrs by luciferase reporter gene assay relative to vehicle-treated control
[14] = target: T4, Peroxisome proliferator-activated receptor delta (Homo sapiens); assay: Transactivation of human Gal4-PPARbeta/delta LBD transfected in human HepG2 cells assessed as stimulation at 1 uM after 20 hrs by luciferase reporter gene assay relative to vehicle-treated control

SMILES | EC50 [2] | Activity [3] | also measured
CC(C)(Oc1ccc(C2CC2(Cl)Cl)cc1)C(=O)O (centres undefined) |  |  | Activity [1]: 311%
CCCCCCCCCCCCCCCCCC(=O)O[C@H]1CC[C@]2(C)[C@H]3CC[C@]4(C)[C@@H]([C@H](C)/C=C/[C@H](C)C(C)C)CC[C@H]4C3=C[C@H](O)[C@@]2(O)C1 | 20.6 µM | Non-toxic | 
CCCCC/C=C\C/C=C\CCCCCCCC(=O)O[C@H]1C=C2[C@@H]3CC[C@H]([C@H](C)/C=C/[C@H](C)C(C)C)[C@@]3(C)CC[C@@H]2[C@@]2(C)CC[C@H](O)C[C@]12O | > 50 µM | Non-toxic | 
CCCCC/C=C\C/C=C\CCCCCCCC(=O)O[C@H]1CC[C@]2(C)[C@H]3CC[C@]4(C)[C@@H]([C@H](C)/C=C/[C@H](C)C(C)C)CC[C@H]4C3=C[C@H](O)[C@@]2(O)C1 | 18.7 µM | Non-toxic | 
CC/C=C\C/C=C\C/C=C\CCCCCCCC(=O)O[C@@H]1C=C2[C@@H]3CC[C@H]([C@H](C)/C=C/[C@H](C)C(C)C)[C@@]3(C)CC[C@@H]2[C@@]2(C)CC[C@H](O)C[C@]12O | > 50 µM | Non-toxic | 
CCCCC/C=C\C/C=C\CCCCCCCC(=O)O[C@H]1C2=C3CC[C@H]([C@H](C)/C=C/[C@H](C)C(C)C)[C@@]3(C)CC[C@@H]2[C@@]2(C)CC[C@H](O)C[C@@]23O[C@@H]13 | 6.4 µM | Non-toxic | Activity [4]: 156%; Activity [5]: 121%; Activity [6]: 99.6%; Activity [7]: 309%; Activity [8]: 386%; Activity [9]: 111%; Activity [10]: 346%; Activity [11]: Dose-dependent effect; Activity [12]: 129%; Activity [13]: 162%
CCCCCCCCCCCCCCCC(=O)O[C@H]1C=C2[C@@H]3CC[C@H]([C@H](C)/C=C/[C@H](C)C(C)C)[C@@]3(C)CC[C@@H]2[C@@]2(C)CC[C@H](O)C[C@]12O | > 50 µM | Non-toxic | 
CCCCCCCCCCCCCCCCCC(=O)O[C@H]1CC[C@@]2(C)C(=CC=C3[C@@H]4CC[C@H]([C@H](C)/C=C/[C@H](C)C(C)C)[C@@]4(C)CC[C@@H]32)C1 | > 50 µM | Non-toxic | 
CCCCCCCCCCCCCCCC(=O)O[C@H]1CC[C@@]2(C)C(=CC=C3[C@@H]4CC[C@H]([C@H](C)/C=C/[C@H](C)C(C)C)[C@@]4(C)CC[C@@H]32)C1 | > 50 µM | Non-toxic | 
CCCCCCCC/C=C\CCCCCCCC(=O)O[C@H]1C2=C3CC[C@H]([C@H](C)/C=C/[C@H](C)C(C)C)[C@@]3(C)CC[C@@H]2[C@@]2(C)CC[C@H](O)C[C@@]23O[C@@H]13 | 8.2 µM | Non-toxic | Activity [4]: 125%; Activity [5]: 112%; Activity [6]: 100%; Activity [7]: 289%; Activity [8]: 314%; Activity [9]: 102%; Activity [10]: 297%; Activity [11]: Dose-dependent effect; Activity [12]: 114%; Activity [13]: 133%
CCCCC/C=C\C/C=C\CCCCCCCC(=O)O[C@H]1CC[C@]2(C)[C@@]3(O)CC[C@]4(C)[C@@H]([C@H](C)/C=C/[C@H](C)C(C)C)CC[C@H]4C3=C[C@H](O)[C@@]2(O)C1 | 22.3 µM | Non-toxic | 
CCCc1c(OCCCOc2ccc(OCC(=O)O)cc2)ccc(C(C)=O)c1O |  |  | Activity [14]: 288%
CCCCCCCC/C=C\CCCCCCCC(=O)O[C@H]1C=C2[C@@H]3CC[C@H]([C@H](C)/C=C/[C@H](C)C(C)C)[C@@]3(C)CC[C@@H]2[C@@]2(C)CC[C@H](O)C[C@]12O | > 50 µM | Non-toxic | 
